Assay results as given in publication PMC8600089, “The development of a high-affinity conformation-sensitive antibody mimetic using a biocompatible copolymer carrier (iBody)” (The Journal of Biological Chemistry, 2021).
Read-outs that look alike come from different tables or passages of the source. Starred links: 1 amine or outer side, 2 acyl side, 3 side chain; linkers in the order of their positions; H or OH if unused. Positions of bridges follow the written chain, without caps; N, C: chain ends. Residues, ends and D or L forms follow the SMILES beside them. Groups on a side chain read outwards from the residue. *: point of attachment. PEG12 = NCCOCCOCCOCCOCCOCCOCCOCCOCCOCCOCCOCCOCCC(=O)O; Biotin = O=C1N[C@H]2[C@H](CS[C@H]2CCCCC(=O)*)N1; TBMB = c1c(C[*:1])cc(C[*:3])cc1C[*:2]

What was measured:
[1] = molecular target: T1, recombinant extracellular part of PSMA (Homo sapiens, UniProt Q04609); assay: Competition ELISA: iBody 1 binding to PSMA versus PSMA inhibitors
T1 sequence (Q04609 44-750 limits assumed): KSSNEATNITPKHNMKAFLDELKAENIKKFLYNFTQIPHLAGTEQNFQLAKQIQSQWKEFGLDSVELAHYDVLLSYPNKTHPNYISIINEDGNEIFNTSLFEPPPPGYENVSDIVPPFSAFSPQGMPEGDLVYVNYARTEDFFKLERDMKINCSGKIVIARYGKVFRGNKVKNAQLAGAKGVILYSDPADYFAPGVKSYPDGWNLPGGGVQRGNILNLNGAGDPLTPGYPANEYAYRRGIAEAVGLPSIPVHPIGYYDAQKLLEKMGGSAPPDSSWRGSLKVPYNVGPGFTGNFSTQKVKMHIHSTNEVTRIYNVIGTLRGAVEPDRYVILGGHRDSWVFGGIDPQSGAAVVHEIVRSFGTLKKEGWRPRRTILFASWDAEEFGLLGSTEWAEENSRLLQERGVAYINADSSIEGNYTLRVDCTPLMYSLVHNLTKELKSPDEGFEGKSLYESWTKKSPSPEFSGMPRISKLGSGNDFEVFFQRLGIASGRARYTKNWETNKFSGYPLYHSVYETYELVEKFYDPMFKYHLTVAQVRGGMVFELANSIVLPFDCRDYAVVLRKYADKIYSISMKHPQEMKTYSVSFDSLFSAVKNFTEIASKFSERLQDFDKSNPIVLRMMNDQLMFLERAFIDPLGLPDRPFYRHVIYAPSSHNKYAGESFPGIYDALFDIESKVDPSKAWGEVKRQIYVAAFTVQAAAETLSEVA

[2] = molecular target: T1, recombinant extracellular part of PSMA; assay: ELISA with immobilized PSMA
[3] = molecular target: PSMA (AviPSMA) (Homo sapiens, UniProt Q04609); assay: PSMA activity assay (HPLC, substrate pteroyl-di-L-glutamate); format: biochemical
Sequence of PSMA (AviPSMA) (Q04609 44-750 limits assumed): as above

Compound: O=C(O)CCC(CP(=O)(O)O)C(=O)O (centres unmarked) [2-PMPA, 2-(phosphonomethyl)pentane-1,5-dioic acid]
- competition with binding of iBody 1 to PSMA on ELISA (in words) [1]: outcompeted

Compound: CC(=O)N[C@H]1CSCc2cc3cc(c2)CSC[C@H](NC(=O)[C@H](CCC(=O)O)NC(=O)[C@H](CC(=O)O)NC(=O)[C@H](CC(=O)O)NC1=O)C(=O)N1CCC[C@H]1C(=O)N[C@@H](CC(=O)O)C(=O)N[C@@H](Cc1ccc(O)cc1)C(=O)N[C@@H](C(C)C)C(=O)N[C@H](C(=O)NCC(=O)NCC(=O)N[C@@H](CO)C(=O)NCC(=O)N[C@@H](CCCCNC(=O)CCOCCOCCOCCOCCOCCOCCOCCOCCOCCOCCOCCOCCNC(=O)CCCC[C@@H]1SC[C@@H]2NC(=O)N[C@@H]21)C(N)=O)CSC3 [Peptide 1] (Ac-CDDECPDYVCGGSGK([PEG12-Biotin])-NH2; linker 1-5-10 via TBMB)
- EC50 [2]: > 5 µM
- IC50 ([3]; cell gives μM under a head in nM, 20-min incubation, 37 °C, n = 3): > 50 µM
- inhibition at 50 µM ([3]; in 50μM): 10%

Compound: phosphate
- competition with binding of iBody 1 to PSMA on ELISA (in words) ([1]; iBody 1 (5 nM per legend), inhibitor pre-incubated 30 min, then iBody 60 min at RT, representative of >3 experiments, n = 3): outcompeted

Compound: poly(HPMA-co-Ma-β-Ala-ATTO488-co-Ma-β-Ala-NH-ED-biotin) [iBody 3, reference compound]
- Ratio: value on layer with PSMA divided by value on layer lacking PSMA ([2]; 8 nM iBody): 0.9
- Ratio: value on layer with PSMA divided by value on layer lacking PSMA ([2]; 40 nM iBody): 1.3
- Ratio: value on layer with PSMA divided by value on layer lacking PSMA ([2]; 200 nM iBody): 1.1
- Ratio: value on layer with PSMA divided by value on layer lacking PSMA ([2]; 1000 nM iBody): 0.8
- Ratio: value on layer with PSMA divided by value on layer lacking PSMA ([2]; 5000 nM iBody): 0.8
- specific binding to immobilized PSMA compared with control layer (in words) ([2]; ELISA, layer with vs without PSMA): no specific binding
